Data from patent EP4644375A1, “SUBSTITUTED HYDROQUINOLINES FOR THE TREATMENT OF GLIOBLASTOMA MULTIFORME” (Molius Saglik Teknolojileri Anonim Sirketi, priority 2024, dated 2025).

What was measured:
[1] = system: U138-MG human glioma cell; assay: Cell proliferation analysis (MTT); assay type: cell-based; conditions: MTT; for inhibition at 10 µM / activity at 10 µM: Homo sapiens, 48 h
Experimental: (§1) U87-MG and U138-MG human glioma cell, were incubated with 10% fetal bovine serum (FBS) (Gibco, 10500-064), 1% L-glutamine (Gibco, 25030-024), in a humidified incubator with 5% CO2 at 37 °C. The cells were contained in DMEM High Glucose (Gibco, 41966-029) supplemented with 1% penicillin-streptomycin (P/S) (Gibco 15140-122) solution. The cytotoxic effects of the target compounds on U87-MG and U138-MG cell lines were assessed using the MTT (Thiazolyl Blue Tetrazolium Bromide) method. 7×10^3 cells were seeded into a 96-well plate in 100 µl DMEM High Glucose 10% FBS and 1% P/S. 24 hours after cell incubation, each target compound was added at a dose of 10 µM and the drug treatment was carried out for two days. After the incubation period, 10 µL of MTT solution was added to each well (5 mg/ml in PBS). After 2 hours, MTT solutions were removed from the wells. Then, 100 µl DMSO was added, and mixed to dissolve the formazan crystals. Cell proliferation was analysed by measuring the absorbance of dissolved formazan at a wavelength of 570 nm.
(§2) IC50 values were determined using the same method as above wherein the cells were treated with the target compounds at different doses.

U87-MG human glioma cell = assay: Cell proliferation analysis (MTT); assay type: cell-based; conditions: MTT; for inhibition at 10 µM / activity at 10 µM: Homo sapiens, U-87 MG, 48 h
Experimental: as §1, §2

| Compound | inhibition at 10 µM ([1]; 10 µM, two days) [%] | inhibition at 10 µM (U87-MG human glioma cell; 10 µM, two days) [%] | activity at 10 µM ([1]; 10 µM, two days) [%] | activity at 10 µM (U87-MG human glioma cell; 10 µM, two days) [%] | other results |
| --- | --- | --- | --- | --- | --- |
| 2-oxo-1,2,3,4-tetrahydroquinolin-6-yl dimethylcarbamate [TR-G005] |  |  |  |  | Cell Proliferation (%) ([1]; 10 µM, two days): 77%; Inhibition (%) ([1]; 10 µM, two days): 23%; Cell Proliferation (%) (U87-MG human glioma cell; 10 µM, two days): 77%; Inhibition (%) (U87-MG human glioma cell; 10 µM, two days): 23% |
| 2-oxo-1,2,3,4-tetrahydroquinolin-6-yl diphenylcarbamate [TR-G020] |  |  |  |  | Cell Proliferation (%) ([1]; 10 µM, two days): 80%; Inhibition (%) ([1]; 10 µM, two days): 20%; Cell Proliferation (%) (U87-MG human glioma cell; 10 µM, two days): 72%; Inhibition (%) (U87-MG human glioma cell; 10 µM, two days): 29% |
| O=C1CCc2cc(OCCCCc3nnnn3C3CCCCC3)ccc2N1 [Cilostazol, reference compound] |  |  |  |  | Inhibition (%) ([1]; reference drugs): 12%; Proliferation (%) ([1]; reference drugs): 88%; Inhibition (%) (U87-MG human glioma cell; reference drugs): 22%; Proliferation (%) (U87-MG human glioma cell; reference drugs): 78% |
| O=C1CCc2cc(OCCOCc3ccccc3)ccc2N1 [TR-G001, 6-(2-(benzyloxy)ethoxy)-3,4-dihydroquinolin-2(1H)-one] | 12 | 22 |  |  | Cell Proliferation (%) ([1]; 10 µM, two days): 88%; Cell Proliferation (%) (U87-MG human glioma cell; 10 µM, two days): 78% |
| CC(C)C/C=N/NC(=O)COc1ccc2c(c1)CCC(=O)N2 [TR-G003, (E)-N'-(3-methylbutylidene)-2-((2-oxo-1,2,3,4-tetrahydroquinolin-6-yl)oxy)acetohydrazide] | 16 | 21 | 84 | 79 |  |
| O=C1CCc2cc(OCC(=O)Oc3ccccc3)ccc2N1 [TR-G004, phenyl 2-((2-oxo-1,2,3,4-tetrahydroquinolin-6-yl)oxy)acetate] | 12 | 27 | 88 | 73 |  |
| O=C1CCc2cc(OC(=O)Cc3ccccc3)ccc2N1 [TR-G007, 2-oxo-1,2,3,4-tetrahydroquinolin-6-yl 2-phenylacetate] | 18 | 9 | 82 | 91 |  |
| COc1ccc(C(=O)Oc2ccc3c(c2)CCC(=O)N3)cc1OC [TR-G008, 2-oxo-1,2,3,4-tetrahydroquinolin-6-yl 3,4-dimethoxybenzoate] | 35 | 37 | 65 | 63 |  |
| COc1ccc(C(=O)Oc2ccc3c(c2)CCC(=O)N3)c(OC)c1 [TR-G009, 2-oxo-1,2,3,4-tetrahydroquinolin-6-yl 2,4-dimethoxybenzoate] | 13 | 28 | 87 | 72 |  |
| O=C1CCc2cc(OCC3CC3)ccc2N1 [TR-G010, 6-(cyclopropylmethoxy)-3,4-dihydroquinolin-2(1H)-one] | 26 | 26 | 74 | 74 |  |
| O=C1CCc2cc(OC(=O)c3cccc4ccccc34)ccc2N1 [TR-G011, 2-oxo-1,2,3,4-tetrahydroquinolin-6-yl 1-naphthoate] | 40 | 24 | 60 | 76 |  |
| CCOC(=O)COc1ccc2c(c1)CCC(=O)N2 [TR-G012, ethyl 2-((2-oxo-1,2,3,4-tetrahydroquinolin-6-yl)oxy)acetate] | 15 | 29 | 85 | 71 |  |
| O=C1CCc2cc(OCCCCOC(=O)c3ccccc3)ccc2N1 [TR-G013, 4-((2-oxo-1,2,3,4-tetrahydroquinolin-6-yl)oxy)butyl benzoate] | 22 | 29 | 78 | 71 |  |
| O=C(OCCCCOc1ccc2c(c1)CCC(=O)N2CCCCOC(=O)c1ccccc1)c1ccccc1 [TR-G013A, 4-(6-(4-(benzoyloxy)butoxy)-2-oxo-3,4-dihydroquinolin-1(2H)-yl)butyl benzoate] | 47 | 54 | 53 | 46 |  |
| C=CCOc1ccc2c(c1)CCC(=O)N2CC=C [TR-G014A, 1-allyl-6-(allyloxy)-3,4-dihydroquinolin-2(1H)-one] | 32 | 19 | 68 | 82 |  |
| O=C1CCc2cc(OC(=O)CCl)ccc2N1 [TR-G016, 2-oxo-1,2,3,4-tetrahydroquinolin-6-yl 2-chloroacetate] | 5 | 22 | 95 | 78 |  |
| O=C1CCc2cc(OCCBr)ccc2N1 [TR-G017, 6-(2-bromoethoxy)-3,4-dihydroquinolin-2(1H)-one] | 18 | 6 | 82 | 94 |  |
| NNC(=O)COc1ccc2c(c1)CCC(=O)N2 [TR-G019, 2-((2-oxo-1,2,3,4-tetrahydroquinolin-6-yl)oxy)acetohydrazide] | 25 | 25 | 75 | 75 |  |
| O=C(COc1ccc2c(c1)CCC(=O)N2)NN=Cc1ccc(Cl)cc1 [TR-G021, N'-(4-chlorobenzylidene)-2-((2-oxo-1,2,3,4-tetrahydroquinolin-6-yl)oxy)acetohydrazide] | 40 | 36 | 60 | 65 |  |
| COc1ccc(C=NNC(=O)COc2ccc3c(c2)CCC(=O)N3)c(OC)c1 [TR-G022, N'-(2,4-dimethoxybenzylidene)-2-((2-oxo-1,2,3,4-tetrahydroquinolin-6-yl)oxy)acetohydrazide] | 25 | 2 | 75 | 98 |  |
| O=C1CCc2cc(OC(=O)CN3CCN(c4ncccn4)CC3)ccc2N1 [TR-G023, 2-oxo-1,2,3,4-tetrahydroquinolin-6-yl 2-(4-(pyrimidin-2-yl)piperazin-1-yl)acetate] | 1 | 17 | 99 | 83 |  |
| O=C(COc1ccc2c(c1)CCC(=O)N2)N/N=C/c1ccco1 [TR-G025, (E)-N'-(furan-2-ylmethylene)-2-((2-oxo-1,2,3,4-tetrahydroquinolin-6-yl)oxy)acetohydrazide] | 10 | 25 | 90 | 75 |  |
| COc1ccc(/C=N/NC(=O)COc2ccc3c(c2)CCC(=O)N3)cc1 [TR-G026, (E)-N'-(4-methoxybenzylidene)-2-((2-oxo-1,2,3,4-tetrahydroquinolin-6-yl)oxy)acetohydrazide] | 10 | 8 | 90 | 92 |  |
| Cc1[nH]c2ccccc2c1/C=N/NC(=O)COc1ccc2c(c1)CCC(=O)N2 [TR-G027, (E)-N'-((2-methyl-1H-indol-3-yl)methylene)-2-((2-oxo-1,2,3,4-tetrahydroquinolin-6-yl)oxy)acetohydrazide] | 46 | 34 | 54 | 66 |  |
| CCCc1ccc(/C=N/NC(=O)COc2ccc3c(c2)CCC(=O)N3)cc1 [TR-G028, (E)-2-((2-oxo-1,2,3,4-tetrahydroquinolin-6-yl)oxy)-N'-(4-propylbenzylidene)acetohydrazide] | -6 | 36 | 106 | 64 |  |
